In patent US11161826B2, “Manufacturing methods and polymorphs of a thiazoline anti-hyperalgesic agent” (ACADIA PHARMACEUTICALS INC., priority 2019, dated 2021):
Structures can show the parent of a compound that is named as a salt.

Assays:
Assay type in all cases: physicochemical
[1] = Solubility in organic/aqueous solvents
[2] = Gravimetric Vapor Sorption (GVS)
Description: The sample is hygroscopic.

[3] = Thermogravimetric Analysis (TGA) decomposition
Description: The combined DSC/TGA results for (R)-2-(2-hydroxyphenylamino)-5,5-dimethyl-4,5-dihydrothiazole-4-carboxylic acid mono-hydrochloride is provided in FIG. 7. […] An amorphous form of Compound 1 can be made by, for example, lyophilizing crystalline Compound 1 as described in Example 4 herein.

CC1(C)SC(Nc2ccccc2O)=N[C@@H]1C(=O)O [Compound 1, (R)-2-(2-hydroxyphenylamino)-5,5-dimethyl-4,5-dihydrothiazole-4-carboxylic acid mono-hydrochloride]
solubility ([1]; 10% water/tetrahydrofuran): sparingly soluble | solubility ([1]; 10% water:iso-propyl acetate): sparingly soluble | solubility ([1]; acetone): less than sparingly soluble | solubility ([1]; ethanol): sparingly soluble | solubility ([1]; ethyl acetate): less than sparingly soluble | solubility ([1]; iso-propanol): sparingly soluble | solubility ([1]; iso-propyl acetate): less than sparingly soluble | solubility ([1]; methanol): freely soluble | solubility ([1]; n-heptane): less than sparingly soluble | solubility ([1]; tert-butyl alcohol): less than sparingly soluble | solubility ([1]; tert-butyl alcohol:water (1:1)): freely soluble | solubility ([1]; tert-butyl methyl ether): less than sparingly soluble | solubility ([1]; tetrahydrofuran): less than sparingly soluble | solubility ([1]; toluene): less than sparingly soluble | solubility ([1]; water): sparingly soluble | hygroscopicity ([2]; GVS): hygroscopic | GVS uptake ([2]; between 0% and 90% RH): 6% | TGA start of decomposition (total 5% mass loss) [3]: ~202 °C
